Source: US20190255086A1, “Compositions and Methods for Treating an Infection” (CMPD Licensing, LLC, priority 2015, published 2019)

What was measured:
Aspergillus fumigatus = test: Expected efficacy of anti-fungal agents against various fungi (Table 4)
Cryptococcus neoformans = test: as above
Blastomyces dermatitidis = test: as above
Candida species = test: as above
Coccidioides immitis = conditions: expected efficacy
Peptostreptococcus = test: Expected efficacy of anti-bacterial agents against various bacteria (Tables 5 and 6); conditions: Gram: pos
Enterococcus faecium = test: as above; conditions: Gram: pos
[1] = system: Corynebacterium urealyticum; test: as above; conditions: Gram: pos
Bartonella bacilliformis = test: as above; conditions: Gram: neg
[2] = system: Staphylococcus aureus (MSSA); test: as above; conditions: Gram: pos
Klebsiella oxytoca = test: as above; conditions: Gram: neg
Chlamydia trachomatis = test: as above; conditions: Gram: n/a
[3] = system: Klebsiella (Calymmatobacterium) granulomatis; test: as above; conditions: Gram: neg
Shigella sonnei = test: as above; conditions: Gram: neg
Proteus mirabilis = test: as above; conditions: Gram: neg
Corynebacterium jeikeium = test: as above; conditions: Gram: pos
Pseudomonas fluorescens = test: as above; conditions: Gram: neg
Streptococcus agalactiae = test: as above; conditions: Gram: pos
[4] = system: Staphylococcus epidermidis; test: as above; conditions: Gram: pos
Chlamydia pneumoniae = test: as above; conditions: Gram: n/a
Moraxella catarrhalis = test: as above; conditions: Gram: neg
Providencia stuartii = test: as above; conditions: Gram: neg
Haemophilus influenzae = test: as above; conditions: Gram: neg
Serratia marcescens = test: as above; conditions: Gram: neg
[5] = system: Viridans group streptococci; test: as above; conditions: Gram: pos
Clostridium difficile = test: as above; conditions: Gram: anaer
Pseudomonas aeruginosa = test: as above; conditions: Gram: neg
Streptococcus pneumoniae = test: as above; conditions: Gram: pos
Enterobacter cloacae = test: as above; conditions: Gram: neg
Shigella boydii = test: as above; conditions: Gram: neg
Salmonella typhi = test: as above; conditions: Gram: neg
Vibrio cholerae = test: as above; conditions: Gram: neg
Bacteroides fragilis = test: as above; conditions: Gram: anaer
Enterobacter sakazakii = test: as above; conditions: Gram: neg
Escherichia coli = test: as above; conditions: Gram: neg
Haemophilus ducreyi = test: as above; conditions: Gram: neg
Citrobacter diversus = test: as above; conditions: Gram: neg
Klebsiella pneumoniae = test: Expected efficacy of anti-bacterial agents against various bacteria (Tables 5 and 6); conditions: Gram: neg
Neisseria gonorrhoeae = test: Expected efficacy of anti-bacterial agents against various bacteria (Tables 5 and 6); conditions: Gram: neg
Proteus vulgaris = test: as above; conditions: Gram: neg
Mycoplasma pneumoniae = test: Expected efficacy of anti-bacterial agents against various bacteria (Tables 5 and 6); conditions: Gram: n/a
Morganella morganii = test: as above; conditions: Gram: neg
[6] = system: Haemophilus parainfluenzae; test: as above; conditions: Gram: neg
[7] = system: Acinetobacter calcoaceticus; test: as above; conditions: Gram: neg
Shigella dysenteriae = test: as above; conditions: Gram: neg
Enterobacter aerogenes = test: as above; conditions: Gram: neg
Enterococcus faecalis = test: as above; conditions: Gram: pos
Neisseria meningitidis = test: as above; conditions: Gram: neg
[8] = system: Methicillin resistant staph aureus (MRSA); test: as above; conditions: Gram: pos
Citrobacter freundii = test: as above; conditions: Gram: neg
Acinetobacter baumannii = test: as above; conditions: Gram: neg
Bordetella pertussis = test: as above; conditions: Gram: neg
Campylobacter jejuni = test: as above; conditions: Gram: neg
Acinetobacter lwoffii = test: as above; conditions: Gram: neg
Streptococcus pyogenes = test: Expected efficacy of anti-bacterial agents against various bacteria (Tables 5 and 6); conditions: Gram: pos
Providencia rettgeri = test: as above; conditions: Gram: neg
Diphtheroids = test: Expected efficacy of anti-bacterial agents against various bacteria (Tables 5 and 6); conditions: Gram: pos
Shigella flexneri = test: as above; conditions: Gram: neg

In the case of `OC(Cn1cncn1)(Cn1cncn1)c1ccc(F)cc1F` [Fluconazole], the “Efficacy of various antifungal agents” value (Aspergillus fumigatus) is reported as “yes”, the “Efficacy of various antifungal agents” value (Cryptococcus neoformans) is reported as “yes” and the “Efficacy of various antifungal agents” value (Blastomyces dermatitidis) is reported as “yes”. For the same compound, the “Efficacy of various antifungal agents” value (Candida species) was “yes” and the “Efficacy of various antifungal agents” value (Coccidioides immitis) was “yes”.

With `CN[C@H](CC(C)C)C(=O)N[C@H]1C(=O)N[C@@H](CC(N)=O)C(=O)N[C@H]2C(=O)N[C@H]3C(=O)N[C@H](C(=O)N[C@H](C(=O)O)c4cc(O)cc(O)c4-c4cc3ccc4O)[C@H](O)c3ccc(c(Cl)c3)Oc3cc2cc(c3O[C@@H]2O[C@H](CO)[C@@H](O)[C@H](O)[C@H]2O[C@H]2C[C@](C)(N)[C@H](O)[C@H](C)O2)Oc2ccc(cc2Cl)[C@H]1O` [Vancomycin] the “Efficacy of various antibiotic agents” value (Francisella tularensis) was “no”, the “Efficacy of various antibiotic agents” value (Peptostreptococcus) was “yes” and the “Efficacy of various antibiotic agents” value (Enterococcus faecium) was “yes, not VRE”. The “Efficacy of various antibiotic agents” value [1] was “yes”, the “Efficacy of various antibiotic agents” value (Bartonella bacilliformis) was “no” and the “Efficacy of various antibiotic agents” value [2] was “yes”. The “Efficacy of various antibiotic agents” value (Klebsiella oxytoca) was “no”, the “Efficacy of various antibiotic agents” value (Chlamydia trachomatis) was “no” and the “Efficacy of various antibiotic agents” value [3] was “no”. For the same compound, the “Efficacy of various antibiotic agents” value (Shigella sonnei) was “no”, the “Efficacy of various antibiotic agents” value (Proteus mirabilis) was “no” and the “Efficacy of various antibiotic agents” value (Corynebacterium jeikeium) was “yes”. For the same compound, the “Efficacy of various antibiotic agents” value (Pseudomonas fluorescens) was “no”, the “Efficacy of various antibiotic agents” value (Streptococcus agalactiae) was “yes” and the “Efficacy of various antibiotic agents” value [4] was “yes”. For the same compound, the “Efficacy of various antibiotic agents” value (Chlamydia pneumoniae) was “no”, the “Efficacy of various antibiotic agents” value (Moraxella catarrhalis) was “no” and the “Efficacy of various antibiotic agents” value (Providencia stuartii) was “no”. The “Efficacy of various antibiotic agents” value (Haemophilus influenzae) was “no”, the “Efficacy of various antibiotic agents” value (Serratia marcescens) was “no” and the “Efficacy of various antibiotic agents” value [5] was “yes”. For the same compound, the “Efficacy of various antibiotic agents” value (Clostridium difficile) was “yes”, the “Efficacy of various antibiotic agents” value (Pseudomonas aeruginosa) was “no” and the “Efficacy of various antibiotic agents” value (Streptococcus pneumoniae) was “yes”. For the same compound, the “Efficacy of various antibiotic agents” value (Enterobacter cloacae) was “no”, the “Efficacy of various antibiotic agents” value (Shigella boydii) was “no” and the “Efficacy of various antibiotic agents” value (Salmonella typhi) was “no”. The “Efficacy of various antibiotic agents” value (Vibrio cholerae) was “no”, the “Efficacy of various antibiotic agents” value (Bacteroides fragilis) was “no” and the “Efficacy of various antibiotic agents” value (Enterobacter sakazakii) was “no”. The “Efficacy of various antibiotic agents” value (Escherichia coli) was “no”, the “Efficacy of various antibiotic agents” value (Haemophilus ducreyi) was “no” and the “Efficacy of various antibiotic agents” value (Citrobacter diversus) was “no”. For the same compound, the “Efficacy of various antibiotic agents” value (Chlamydia psittaci) was “no”, the “Efficacy of various antibiotic agents” value (Klebsiella pneumoniae) was “no” and the “Efficacy of various antibiotic agents” value (Legionella pneumophila) was “no”. For the same compound, the “Efficacy of various antibiotic agents” value (Brucella species) was “no”, the “Efficacy of various antibiotic agents” value (Neisseria gonorrhoeae) was “no” and the “Efficacy of various antibiotic agents” value (Proteus vulgaris) was “no”. For the same compound, the “Efficacy of various antibiotic agents” value (Yersinia pestis) was “no”, the “Efficacy of various antibiotic agents” value (Mycoplasma pneumoniae) was “no” and the “Efficacy of various antibiotic agents” value (Morganella morganii) was “no”. For the same compound, the “Efficacy of various antibiotic agents” value [6] was “no”, the “Efficacy of various antibiotic agents” value [7] was “no” and the “Efficacy of various antibiotic agents” value (Shigella dysenteriae) was “no”. For the same compound, the “Efficacy of various antibiotic agents” value (Enterobacter aerogenes) was “no”, the “Efficacy of various antibiotic agents” value (Enterococcus faecalis) was “yes” and the “Efficacy of various antibiotic agents” value (Neisseria meningitidis) was “no”. The “Efficacy of various antibiotic agents” value [8] was “yes”, the “Efficacy of various antibiotic agents” value (Citrobacter freundii) was “no” and the “Efficacy of various antibiotic agents” value (Acinetobacter baumannii) was “no”. For the same compound, the “Efficacy of various antibiotic agents” value (Bordetella pertussis) was “no”, the “Efficacy of various antibiotic agents” value (Campylobacter jejuni) was “no” and the “Efficacy of various antibiotic agents” value (Acinetobacter lwoffii) was “no”. The “Efficacy of various antibiotic agents” value (Rickettsiae) was “no”, the “Efficacy of various antibiotic agents” value (Streptococcus pyogenes) was “yes” and the “Efficacy of various antibiotic agents” value (Providencia rettgeri) was “no”. The “Efficacy of various antibiotic agents” value (Clostridium perfringens) was “no”, the “Efficacy of various antibiotic agents” value (Diphtheroids) was “yes” and the “Efficacy of various antibiotic agents” value (Shigella flexneri) was “no”.
